Molecules are shown by their SMILES. Where only a bound is given, the exact number is not on record here.

For orientation: inhibition means the percentage by which the read-out fell short of the control.

The target of the assay is T1, Glutaminase(Brain) (Mus musculus, UniProt D3Z7P3).
T1 sequence (D3Z7P3 55-674): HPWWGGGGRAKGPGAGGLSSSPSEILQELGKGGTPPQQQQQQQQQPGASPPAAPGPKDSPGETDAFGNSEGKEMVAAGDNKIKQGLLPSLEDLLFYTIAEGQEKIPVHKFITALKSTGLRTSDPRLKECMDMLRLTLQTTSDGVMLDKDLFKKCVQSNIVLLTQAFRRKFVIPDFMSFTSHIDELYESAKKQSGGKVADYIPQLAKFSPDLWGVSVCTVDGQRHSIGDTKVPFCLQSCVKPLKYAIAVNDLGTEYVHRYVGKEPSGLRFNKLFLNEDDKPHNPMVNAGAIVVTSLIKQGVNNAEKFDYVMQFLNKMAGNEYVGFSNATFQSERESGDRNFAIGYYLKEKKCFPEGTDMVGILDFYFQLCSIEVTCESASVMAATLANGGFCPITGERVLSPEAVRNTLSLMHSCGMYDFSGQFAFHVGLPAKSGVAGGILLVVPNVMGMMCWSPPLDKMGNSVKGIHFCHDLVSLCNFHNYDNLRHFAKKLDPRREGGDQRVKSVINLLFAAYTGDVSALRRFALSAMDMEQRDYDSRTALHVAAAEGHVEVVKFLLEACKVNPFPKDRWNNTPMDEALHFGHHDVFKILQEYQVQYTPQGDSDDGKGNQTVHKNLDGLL
Nature of the assay: Glutaminase enzyme activity using glutaminase enzyme from mice brain/kidney homogenate (Nessler's reagent, ammonia). The class given is biochemical. The note with it: mice brain homogenate; for inhibition at 0.1 µM: read-out: Glutaminase(Brain) activity % inhibition 0.1 μM; for inhibition at 1 µM: read-out: Glutaminase(Brain) activity % inhibition @1 μM. As for the experimental part: Assay 3: Determination of Glutaminase Enzyme Activity Using Glutaminase Enzyme from Mice Brain/Kidney
Step 1: Preparation of Tissue Homogenates:
Male Balb/c mice were administered 0.28 M ammonium chloride in drinking water for 7 days. The animals were sacrificed and brain/kidney organs collected on dry ice. […] The tissue was homogenized and supernatants were stored at −80° C. until the enzyme assay was performed.
Aim: Compounds were assessed for their ability to inhibit the enzymatic activity of L-glutaminase present in mice brain/kidney homogenate.
Protocol: The assay was performed using a colorimetric method using Nessler's Reagent by quantifying the amount of ammonia formed as a by product during the enzymatic conversion of L-glutamine to glutamate. In the routine assay, 16 μl of tissue homogenate is added to 33 μl of Tris-Hcl phosphate buffer (pH 8) along with 1 μl of DMSO/test compound containing the desired final concentration and vortexed briefly. 50 μl of 20 mM L-glutamine Tris buffer is added to start the reaction and incubated for 15 minutes at 37° C. The ammonia formed is detected by adding 20 μl of reaction mixture to cold water in a 96 well plate followed by 20 μl of Nessler's reagent. The colour developed is measured at 450 nm. Data Analysis: Activity of the test compound is reported as % inhibition and the data is analyzed using Graphpad Prism (Graphpad software; San Diego Calif.) for IC50 determination.

In the case of `O=C(Cc1ccccn1)Nc1ccc(N2CCC(c3nnc(NC(=O)Cc4ccc(Cl)cc4)s3)CC2)nn1` [Example-29, 2-(4-Chlorophenyl)-N-(5-(1-(6-(2-(pyridin-2-yl)acetamido)pyridazin-3-yl)piperidin-4-yl)-1,3,4-thiadiazol-2-yl)acetamide], the inhibition at 0.1 µM is 50 to 75% and the inhibition at 1 µM was 75 to 100%.
On the same counts, the results for `O=C(Cc1cccc(OC(F)(F)F)c1)Nc1ccc(N2CCC(c3nnc(NC(=O)Cc4c[nH]c5ccccc45)s3)CC2)nn1` [Example-32, N-(6-(4-(5-(2-(1H-indol-3-yl)acetamido)-1,3,4-thiadiazol-2-yl)piperidin-1-yl)pyridazin-3-yl)-2-(3-(trifluoromethoxy)phenyl)acetamide] are 25 to 50% and 50 to 75%.
On the same counts, the results for `O=C(Cc1ccccn1)Nc1ccc(N2CCC(c3nnc(NC(=O)Cc4cccc(F)c4)s3)CC2)nn1` [Example-24, 2-(3-Fluorophenyl)-N-(5-(1-(6-(2-(pyridin-2-yl)acetamido)pyridazin-3-yl)piperidin-4-yl)-1,3,4-thiadiazol-2-yl)acetamide] are 50 to 75% and 75 to 100%.
The matching figures for `O=C(Cc1ccccn1)Nc1ccc(N2CCC(c3nnc(NC(=O)Cc4c(F)ccc(F)c4F)s3)CC2)nn1` [Example-20, 2-(Pyridin-2-yl)-N-(6-(4-(5-(2-(2,3,6-trifluorophenyl)acetamido)-1,3,4-thiadiazol-2-yl)piperidin-1-yl)pyridazin-3-yl)acetamide]: 25 to 50% and 50 to 75%.
Consider `Cc1ccccc1CC(=O)Nc1nnc(C2CCN(c3ccc(NC(=O)Cc4cccc(OC(F)(F)F)c4)nn3)CC2)s1` [Example-31, 2-o-Tolyl-N-(5-(1-(6-(2-(3-(trifluoromethoxy)phenyl)acetamido)pyridazin-3-yl)piperidin-4-yl)-1,3,4-thiadiazol-2-yl)acetamide], for which the inhibition at 0.1 µM lay in the range of 25 to 50% and the inhibition at 1 µM lay in the range of 50 to 75%.
As for `O=C(Cc1ccccc1F)Nc1ccc(N2CCC(c3nnc(NC(=O)Cc4cnccn4)s3)CC2)nn1` [Example-33, 2-(2-Fluorophenyl)-N-(6-(4-(5-(2-(pyrazin-2-yl)acetamido)-1,3,4-thiadiazol-2-yl)piperidin-1-yl)pyridazin-3-yl)acetamide], the inhibition at 0.1 µM was in the range of 25 to 50% and the inhibition at 1 µM was 50 to 75%.
For the compound `N#Cc1cccc(CC(=O)Nc2nnc(C3CCN(c4ccc(NC(=O)Cc5cccc(OC(F)(F)F)c5)nc4)CC3)s2)c1` [Example-5, 2-(3-Cyanophenyl)-N-(5-(1-(6-(2-(3-(trifluoromethoxy)phenyl)acetamido)pyridin-3-yl)piperidin-4-yl)-1,3,4-thiadiazol-2-yl)acetamide], the inhibition at 0.1 µM is below 25% and the inhibition at 1 µM was in the range of 25 to 50%.
Take `COc1ccccc1CC(=O)Nc1nnc(C2CCN(c3ccc(NC(=O)Cc4ccccn4)nn3)CC2)s1` [Example-26, 2-(2-Methoxyphenyl)-N-(5-(1-(6-(2-(pyridin-2-yl)acetamido)pyridazin-3-yl)piperidin-4-yl)-1,3,4-thiadiazol-2-yl)acetamide]: the inhibition at 0.1 µM lay within 50 to 75% and the inhibition at 1 µM lay within 75 to 100%.
As for `O=C(Cc1ccccn1)Nc1ccc(N2CCC(c3nnc(NC(=O)Cc4cccc(F)c4F)s3)CC2)nn1` [Example-21, 2-(2,3-Difluorophenyl)-N-(5-(1-(6-(2-(pyridin-2-yl)acetamido)pyridazin-3-yl)piperidin-4-yl)-1,3,4-thiadiazol-2-yl)acetamide], the inhibition at 0.1 µM is 50 to 75% and the inhibition at 1 µM was 75 to 100%.
On the same counts, the results for `O=C(Cc1cccc(OC(F)(F)F)c1)Nc1ccc(N2CCC(c3nnc(NC(=O)Cc4ccc5ncccc5c4)s3)CC2)nn1` [Example-30, 2-(Quinolin-6-yl)-N-(5-(1-(6-(2-(3-(trifluoromethoxy)phenyl)acetamido)pyridazin-3-yl)piperidin-4-yl)-1,3,4-thiadiazol-2-yl)acetamide] are 50 to 75% and 75 to 100%.
Regarding `O=C(Cc1cccnc1)Nc1ccc(N2CCC(c3nnc(NC(=O)Cc4c(F)ccc(F)c4F)s3)CC2)nn1` [Example-19, 2-(Pyridin-3-yl)-N-(6-(4-(5-(2-(2,3,6-trifluorophenyl)acetamido)-1,3,4-thiadiazol-2-yl)piperidin-1-yl)pyridazin-3-yl)acetamide], the inhibition at 0.1 µM fell in the range of 50 to 75% and the inhibition at 1 µM was in the range of 75 to 100%.
Consider `O=C(Cc1ccccn1)Nc1ccc(N2CCC(c3nnc(NC(=O)Cc4ccccc4F)s3)CC2)nn1` [Example-23, 2-(2-Fluorophenyl)-N-(5-(1-(6-(2-(pyridin-2-yl)acetamido)pyridazin-3-yl)piperidin-4-yl)-1,3,4-thiadiazol-2-yl)acetamide], for which the inhibition at 0.1 µM was in the range of 50 to 75% and the inhibition at 1 µM was in the range of 75 to 100%.
On the same counts, the results for `O=C(Cc1ccccn1)Nc1ccc(N2CCC(c3nnc(NC(=O)Cc4cccc(OC(F)(F)F)c4)s3)CC2)cn1` [Example-6, 2-(Pyridin-2-yl)-N-(5-(4-(5-(2-(3-(trifluoromethoxy)phenyl)acetamido)-1,3,4-thiadiazol-2-yl)piperidin-1-yl)pyridin-2-yl)acetamide] are below 25% and below 25%.
Consider `O=C(Cc1cccc(OC(F)(F)F)c1)Nc1ccc(N2CCCC(c3nnc(NC(=O)Cc4ccccn4)s3)C2)cn1` (racemic) [Example 2, (RS)-2-(Pyridin-2-yl)-N-(5-(1-(6-(2-(3-(trifluoromethoxy)phenyl)acetamido)pyridin-3-yl)piperidin-3-yl)-1,3,4-thiadiazol-2-yl)acetamide], for which the inhibition at 0.1 µM was below 25% and the inhibition at 1 µM is 25 to 50%.
On to `O=C(Cc1cccc(OC(F)(F)F)c1)Nc1ccc(N2CCCC(c3nnc(NC(=O)Cc4ccccc4Cl)s3)C2)nn1` (stereo not shown) [Example-13, 2-(2-Chlorophenyl)-N-(5-(1-(6-(2-(3-(trifluoromethoxy)phenyl)acetamido)pyridazin-3-yl)piperidin-3-yl)-1,3,4-thiadiazol-2-yl)acetamide], for which the inhibition at 0.1 µM is below 25% and the inhibition at 1 µM is 50 to 75%.
The matching figures for `O=C(Cc1ccccn1)Nc1ccc(N2CCC(c3nnc(NC(=O)Cc4ccc(F)c(F)c4)s3)CC2)nn1` [Example-22, 2-(3,4-Difluorophenyl)-N-(5-(1-(6-(2-(pyridin-2-yl)acetamido)pyridazin-3-yl)piperidin-4-yl)-1,3,4-thiadiazol-2-yl)acetamide]: 50 to 75% and 75 to 100%.
Turning to `O=C(Cc1cccc(OC(F)(F)F)c1)Nc1ccc(N2CCC(c3nnc(NC(=O)Cc4cccc(N5CCC5)c4)s3)CC2)nn1` [Example-34, 2-(3-(Azetidin-1-yl)phenyl)-N-(5-(1-(6-(2-(3-(trifluoromethoxy)phenyl)acetamido)pyridazin-3-yl)piperidin-4-yl)-1,3,4-thiadiazol-2-yl)acetamide], the inhibition at 0.1 µM was in the range of 25 to 50% and the inhibition at 1 µM is 50 to 75%.
For `O=C(Cc1cccc(OC(F)(F)F)c1)Nc1ccc(N2CCC(c3nnc(NC(=O)C(CO)c4ccccc4)s3)CC2)nn1` (stereo not shown) [Example-36, 3-Hydroxy-2-phenyl-N-(5-(1-(6-(2-(3-(trifluoromethoxy)phenyl)acetamido)pyridazin-3-yl)piperidin-4-yl)-1,3,4-thiadiazol-2-yl)propanamide], the inhibition at 0.1 µM lay within 25 to 50% and the inhibition at 1 µM was in the range of 50 to 75%.
With `O=C(Cc1cccc(OC(F)(F)F)c1)Nc1ccc(N2CCCC(c3nnc(NC(=O)Cc4cccnc4)s3)C2)cn1` (single isomer, unassigned) [Example 3B, (S) or (R) 2-(Pyridin-3-yl)-N-(5-(1-(6-(2-(3-(trifluoromethoxy)phenyl)acetamido)pyridine-3-yl)piperidin-3-yl)-1,3,4-thiadiazol-2-yl)acetamide], the inhibition at 0.1 µM was below 25% and the inhibition at 1 µM was below 25%.
`O=C(Cc1ccccn1)Nc1ccc(N2CCC(c3nnc(NC(=O)Cc4cccc(Cl)c4)s3)CC2)nn1` [Example-35, 2-(3-Chlorophenyl)-N-(5-(1-(6-(2-(pyridin-2-yl)acetamido)pyridazin-3-yl)piperidin-4-yl)-1,3,4-thiadiazol-2-yl)acetamide]: the inhibition at 0.1 µM fell in the range of 50 to 75% and the inhibition at 1 µM lay in the range of 75 to 100%.

(Values after patent publication US10611759B2, “Glutaminase inhibitors” (Rhizen Pharmaceuticals SA, priority 2014, dated 2020).)
